Assay results taken from patent US20190119193A1, “COMPOSITION FOR REGULATING PLANT GROWTH, METHOD FOR TREATING PLANTS THEREWITH, AND ACTIVE INGREDIENT THEREOF” (Ivan Aleksandrovich Starikov, priority 2016, published 2019).

Test system: soybean seeds (“Vilana” variety)
Test: Laboratory tests of DMOA and DEOA for soybean seeds
Format: in vivo
Settings: for Germinative energy: day 3; for Germinative capacity / Number of lateral roots / Sprout height / Taproot length: day 7
Procedure: After that DMOA and DEOA were dissolved in dimethyl sulfoxide to give solutions of 10 g/L concentration, then water was added to give aqueous solutions of DMOA with concentrations of 5.5·10^−5 M, 5.5·10^−6 M, 5.5·10^−7 M, 5.5·10^−8 M, 5.5·10^−9 M and DEOA with concentrations of 4.8·10^−5 M, 4.8·10^−6 M, 4.8·10^−7 M, 4.8·10^−8 M, 4.8·10^−9 M.
The obtained aqueous solutions of DMOA and DEOA were tested in the Scientific Center of Soil-Ecological Reasearch of the Federal State-Funded Educational Institution of Higher Education “Russian State Agrarian University—Moscow Agricultural Academy named after K. A. Timiryazev” (Moscow, 2015) according to the method described by T. A. Sergeeva (Method of laboratory testing of herbicides, Plant protection, 1963, No. 2, pp. 42-43). The primary laboratory screening of DMOA and DEOA was carried out on the seeds of five different crops: sunflower of “Voronezh 638” variety, soybean of “Vilana” variety, alfalfa of “Vega” variety, cucumber of “Nezhinsky” variety and tomato of “Volgogradets” variety.
Water was used as a reference.
A single experiment was carried out in a Petri dish. A circle of filter paper was laid at the bottom of the dish and treated with 5 ml of the work solution selected for the experiment. After that 25 seeds were uniformly laid on the surface of the treated filter paper. The Petri dish was kept at a temperature of 21-23° C. with illumination by fluorescent lamps for 7 days. The fourfold replication of the experiment within a single variant was applied.
The experiment identified the number and percentage of normally germinated seeds on day 3 (germinative energy) and on day 7 (germinative capacity) after the beginning of the experiment. On day 7 the main biometric parameters were also measured: sprout height (mm), taproot length (mm) and number of lateral roots (pcs).
The results were processed with the method of variance analysis with the help of STRAZ software in order to get the LSD0.05 (least significant difference between the test results on 5% significance level).

CCOC(=O)C=C([O-])C(=O)OCC.[Na+] [DEOA, sodium salt of diethyl ester of oxaloacetic acid]
Germinative energy (4.8 · 10^−5 M): 87 ↑ % | Germinative capacity (4.8 · 10^−5 M): 93% | Number of lateral roots (4.8 · 10^−5 M): 0.3 pcs. | Sprout height (4.8 · 10^−5 M): 15.3 mm | Taproot length (4.8 · 10^−5 M): 45.3 ↑ mm | Germinative energy (4.8 · 10^−6 M): 75% | Germinative capacity (4.8 · 10^−6 M): 87% | Number of lateral roots (4.8 · 10^−6 M): 0.6 pcs. | Sprout height (4.8 · 10^−6 M): 19.0 ↑ mm | Taproot length (4.8 · 10^−6 M): 37.7 mm | Germinative energy (4.8 · 10^−7 M): 72% | Germinative capacity (4.8 · 10^−7 M): 90% | Number of lateral roots (4.8 · 10^−7 M): 0.3 pcs. | Sprout height (4.8 · 10^−7 M): 14.7 mm | Taproot length (4.8 · 10^−7 M): 36.2 mm | Germinative energy (4.8 · 10^−8 M): 73% | Germinative capacity (4.8 · 10^−8 M): 93% | Number of lateral roots (4.8 · 10^−8 M): 0.4 pcs. | Sprout height (4.8 · 10^−8 M): 14.3 mm | Taproot length (4.8 · 10^−8 M): 33.6 mm | Germinative energy (4.8 · 10^−9 M): 80% | Germinative capacity (4.8 · 10^−9 M): 99 ↑ % | Number of lateral roots (4.8 · 10^−9 M): 1.2 ↑↑ pcs. | Sprout height (4.8 · 10^−9 M): 17.1 mm | Taproot length (4.8 · 10^−9 M): 46.5 ↑ mm

Sodium salt of dimethyl ester of oxaloacetic acid [DMOA]
Germinative energy (5.5 · 10^−5 M): 78% | Germinative capacity (5.5 · 10^−5 M): 89% | Number of lateral roots (5.5 · 10^−5 M): 0.2 pcs. | Sprout height (5.5 · 10^−5 M): 16.0 mm | Taproot length (5.5 · 10^−5 M): 35.5 mm | Germinative energy (5.5 · 10^−6 M): 82% | Germinative capacity (5.5 · 10^−6 M): 97% | Number of lateral roots (5.5 · 10^−6 M): 0.0 pcs. | Sprout height (5.5 · 10^−6 M): 19.0 ↑ mm | Taproot length (5.5 · 10^−6 M): 37.6 mm | Germinative energy (5.5 · 10^−7 M): 65% | Germinative capacity (5.5 · 10^−7 M): 90% | Number of lateral roots (5.5 · 10^−7 M): 0.0 pcs. | Sprout height (5.5 · 10^−7 M): 19.0 ↑ mm | Taproot length (5.5 · 10^−7 M): 39.5 mm | Germinative energy (5.5 · 10^−8 M): 77% | Germinative capacity (5.5 · 10^−8 M): 87% | Number of lateral roots (5.5 · 10^−8 M): 0.0 pcs. | Sprout height (5.5 · 10^−8 M): 19.5 ↑↑ mm | Taproot length (5.5 · 10^−8 M): 38.4 mm | Germinative energy (5.5 · 10^−9 M): 72% | Germinative capacity (5.5 · 10^−9 M): 83% | Number of lateral roots (5.5 · 10^−9 M): 0.0 pcs. | Sprout height (5.5 · 10^−9 M): 17.8 ↑ mm | Taproot length (5.5 · 10^−9 M): 37.0 mm
